US6852713B2, “Lactam derivatives and methods of their use” (Adolor Corporation, priority 2003, dated 2005)

Tests used:
[1] = target: T1, cloned human μ opioid receptor (Homo sapiens, UniProt P35372); experiment: In vitro binding assay, inhibition of [3H]diprenorphine binding, mu; details: kappa versus μ
T1 construct: expressed in transfected cells
Experimental: (§1) The potencies of the compounds of the invention were determined by testing the ability of a range of concentrations of each compound to inhibit the binding of the non-selective opioid antagonist, [^3H]diprenorphine, to the cloned human μ, κ, and δ opioid receptors, expressed in separate cell lines. IC50 values were obtained by nonlinear analysis of the data using GraphPad Prism version 3.00 for Windows (GraphPad Software, San Diego). Ki values were obtained by Cheng-Prusoff corrections of IC50 values.
(§2) The receptor binding method was a modification of the method of K. Raynor et al. (Mol. Pharmnacol. 1994, 45, 330-334). […] The filters were rinsed 4 times with 1 mL of cold 50 mM Tris HCl, pH 7.8 and radioactivity remaining on the filters determined by scintillation spectroscopy. Nonspecific binding was determined by the minimum values of the titration curves and was confirmed by separate assay wells containing 10 μM naloxone. Ki values were determined by Cheng-Prusoff corrections of IC50 values derived from nonlinear regression fits of 12 point titration curves using GraphPad Prism® version 3.00 for Windows (GraphPad Software, San Diego, Calif.).
(§3) To determine the equilibrium dissociation constant for the inhibitors (Ki), radioligand bound (cpm) in the presence of various concentrations of test compounds was measured. […]

[2] = tested on: acetic acid-induced writhing; experiment: Acetic acid-induced writhing; type: in vivo, male CF-1 mice; details: Mus musculus, po; administered orally; read-out: ED50, block of acetic acid-induced writhing
Experimental: Injection of acetic acid into the peritoneal cavity is used as the noxious stimulus, and the number of writhing responses that occur in response to acetic acid are counted in order to quantif the response to pain.
The writhing assay is adapted from the procedure originally described by Taber et al. (J. Pharmacol. Exp. Ther. 169: 29-38,1986), using male CF-1 mice weighing 20-25 g. Animals are treated with various doses of drugs prior to the administration of an i.p. injection of 0.6% acetic acid solution. Mice are then placed into observation chambers and the number of writhing responses, as defined by a full hind limb extension and retraction, are recorded.
The mean number of writhing responses is calculated for vehicle-treated control mice, and the percent inhibition (% I) of writhing is calculated for each mouse that is treated with drug using the following formula: % I=100×(mean control writhing responses−individual test responses)(mean control writhing responses) (f) Hyperalgesia Induced by Tape Stripping

[3] = target: T2, cloned human κ opioid receptor (Homo sapiens, UniProt P41145); experiment: In vitro binding assay, inhibition of [3H]diprenorphine binding, kappa; details: read-out: Ki against the human kappa receptor
T2 construct: expressed in transfected cells
T2 sequence (P41145 whole entry): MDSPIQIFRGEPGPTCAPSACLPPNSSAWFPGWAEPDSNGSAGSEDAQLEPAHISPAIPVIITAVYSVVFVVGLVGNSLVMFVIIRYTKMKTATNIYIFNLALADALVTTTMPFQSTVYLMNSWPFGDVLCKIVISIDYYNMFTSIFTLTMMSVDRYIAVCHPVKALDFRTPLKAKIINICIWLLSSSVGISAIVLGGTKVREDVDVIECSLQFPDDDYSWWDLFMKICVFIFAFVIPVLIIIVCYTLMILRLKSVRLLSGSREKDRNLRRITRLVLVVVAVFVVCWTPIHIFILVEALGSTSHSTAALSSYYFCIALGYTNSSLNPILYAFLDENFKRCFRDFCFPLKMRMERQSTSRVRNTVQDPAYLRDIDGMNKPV
Experimental: as §1, §2, §3

[4] = target: T3, cloned human δ opioid receptor (Homo sapiens, UniProt P41143); experiment: In vitro binding assay, inhibition of [3H]diprenorphine binding, delta; details: kappa versus δ
T3 construct: expressed in transfected cells
T3 sequence (P41143 whole entry): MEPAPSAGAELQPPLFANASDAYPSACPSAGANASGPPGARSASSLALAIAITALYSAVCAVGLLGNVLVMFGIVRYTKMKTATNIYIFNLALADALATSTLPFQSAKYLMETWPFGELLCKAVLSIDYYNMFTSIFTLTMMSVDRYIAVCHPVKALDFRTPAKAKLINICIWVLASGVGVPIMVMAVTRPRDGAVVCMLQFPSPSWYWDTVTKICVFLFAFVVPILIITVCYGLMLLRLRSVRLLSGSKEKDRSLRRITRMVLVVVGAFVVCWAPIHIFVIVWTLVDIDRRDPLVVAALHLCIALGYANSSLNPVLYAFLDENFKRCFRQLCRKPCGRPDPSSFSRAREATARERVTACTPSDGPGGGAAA
Experimental: as §1, §2, §3

cloned human a receptors = target: T4, cloned human a receptors (Homo sapiens, UniProt P41145); experiment: Stimulation of [35S]GTPγS binding to membranes (agonist potency); type: biochemical
T4 construct: expressed in transfected cells
T4 sequence (P41145 whole entry): as the sequence (P41145 whole entry) above
Experimental: The potencies of the agonists were assessed by their abilities to stimulate [^35S]GTPγS binding to membranes containing the cloned human a receptors.
To determine the EC50 value, which was the concentration to give half-maximal stimulation of [^35S]GTPγS binding, the amount of [^35S]GTPγS bound in the presence of various concentrations of agonists was measured. The EC50 value was then determined.

[5] = tested on: formalin-induced flinching; experiment: In vivo formalin-induced nociception assay; parameters: species or system male Sprague-Dawley rats; details: dose of 100 μg, i.paw
Source text: Administration of formalin into the paw results in a localized inflammation and a pain response that is moderate in intensity and continuous in duration. Unlike many other assays of nociception, the formalin assay measures tonic pain that is a result of tissue injury, and therefore is a model which is more relevant to clinical pain states in humans (see Tjolsen et al., Pain 51: 5-17, 1992). In the rat the response to formalin-induced pain consists of spontaneous flinching behavior, characterized by paw lifting and paw shaking, and a rapid vibration of the paw after drawing it under the body. […] The early or acute phase lasts from 0-5 minutes post-formalin and is followed by a quiescent period lasting approximately 15 minutes. The tonic phase occurs from 20-35 minutes following formalin injection and is the interval where the number of flinching responses is maximal. […]
Inflammation is induced by subcutaneous injection of […] of a 5% formalin solution into the dorsal surface of the right hind paw of male Sprague-Dawley rats weighing 70-90 g. Injections of drug are given into the dorsal surface of the paw prior to formalin injection, and flinching behavior is quantitated by counting the number of responses that occur during the tonic phase of pain, lasting from 20-35 min after formalin injection. […]

T1 sequence (P35372 whole entry): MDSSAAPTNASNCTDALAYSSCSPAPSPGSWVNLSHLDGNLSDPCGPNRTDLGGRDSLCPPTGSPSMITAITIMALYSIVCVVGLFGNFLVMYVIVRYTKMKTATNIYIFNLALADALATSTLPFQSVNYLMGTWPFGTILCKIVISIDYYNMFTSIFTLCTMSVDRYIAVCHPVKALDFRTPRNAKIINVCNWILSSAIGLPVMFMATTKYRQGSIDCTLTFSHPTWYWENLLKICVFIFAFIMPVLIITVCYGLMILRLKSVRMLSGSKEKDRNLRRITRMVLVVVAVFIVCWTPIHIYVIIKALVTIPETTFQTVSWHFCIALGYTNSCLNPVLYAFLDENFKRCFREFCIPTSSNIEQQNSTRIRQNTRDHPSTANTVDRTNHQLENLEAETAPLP

Compound: O=C1C(c2ccc(Cl)c(Cl)c2)CC=CCN1[C@H](CN1CCCC1)c1ccccc1 (stereo partly drawn) [Example 9, 3-(3,4-Dichloro-phenyl)-1-(1-(S)-phenyl-2-pyrrolidin-1-yl-ethyl)-1,3,4,7-tetrahydro-azepin-2-one]
- selectivity versus the human μ receptor [1]: > 100 ×
- ED50 [2]: < 30 mg/kg
- Ki [3]: 1 nM
- selectivity versus the human δ receptor [4]: > 100 ×
- EC50 (cloned human a receptors): 2.5 nM
- % A (percent antagonism of formalin-induced flinching) [5]: > 80%
